Results reported in ChEMBL document CHEMBL1137662, “Effect of oral treatment with hexadecyloxypropyl-[(S)-9-(3-hydroxy-2- phosphonylmethoxypropyl)adenine] [(S)-HPMPA] or octadecyloxyethyl-(S)-HPMPA on cowpox or vaccinia virus infections in mice” (Antimicrob Agents Chemother, 2007).
pEC50: −log10 of the molar value.

Legend:
Liver [1] = experiment: Drug level in Swiss Webster mouse liver at 10 mg/kg, ip after 1 hr; assay type: ADME, organism-based; parameters: dose 10 mg/kg, route intraperitoneal; settings: in vivo
Liver [2] = experiment: Drug level in Swiss Webster mouse liver at 10 mg/kg, po after 3 hrs; assay type: ADME, organism-based; parameters: dose 10 mg/kg, route oral; settings: in vivo
Mus musculus [3] = experiment: Plasma concentration in Swiss Webster mouse at 10 mg/kg, po after 24 hrs by liquid scintillation counting; assay type: ADME, organism-based; parameters: dose 10 mg/kg, route oral; settings: in vivo
[4] = Oral bioavailability in Swiss Webster mouse at 10 mg/kg; assay type: ADME, organism-based; settings: in vivo
Mus musculus [5] = experiment: Plasma concentration in Swiss Webster mouse at 10 mg/kg, ip after 24 hrs by liquid scintillation counting; assay type: ADME, organism-based; parameters: dose 10 mg/kg, route intraperitoneal; settings: in vivo
Mus musculus [6] = experiment: AUC (0 to 24hrs) in Swiss Webster mouse plasma at 10 mg/kg, po; assay type: ADME, organism-based; parameters: time < 24 hr, dose 10 mg/kg, route oral; settings: in vivo
[7] = Tmax in Swiss Webster mouse at 10 mg/kg, po; assay type: ADME, organism-based; parameters: dose 10 mg/kg, route oral; settings: in vivo
Mus musculus [8] = experiment: AUC (0 to 24hrs) in Swiss Webster mouse plasma at 10 mg/kg, ip; assay type: ADME, organism-based; parameters: time < 24 hr, dose 10 mg/kg, route intraperitoneal; settings: in vivo
[9] = Tmax in Swiss Webster mouse at 10 mg/kg, ip; assay type: ADME, organism-based; parameters: dose 10 mg/kg, route intraperitoneal; settings: in vivo
[10] = Cmax in Swiss Webster mouse at 10 mg/kg, ip; assay type: ADME, organism-based; parameters: dose 10 mg/kg, route intraperitoneal; settings: in vivo
[11] = Cmax in Swiss Webster mouse at 10 mg/kg, po; assay type: ADME, organism-based; parameters: dose 10 mg/kg, route oral; settings: in vivo
[12] = Half life in Swiss Webster mouse at 10 mg/kg, ip; assay type: ADME, organism-based; parameters: dose 10 mg/kg, route intraperitoneal; settings: in vivo
[13] = Half life in Swiss Webster mouse at 10 mg/kg, po; assay type: ADME, organism-based; parameters: dose 10 mg/kg, route oral; settings: in vivo
[14] = Selectivity index, ratio of CC50 for HFF cells to EC50 for Cowpox virus Brighton; assay type: toxicity, cell-based; settings: human, read-out: Ratio CC50/EC50
Cowpox virus [15] = experiment: Antiviral activity against Cowpox virus Brighton in HFF cells assessed as reduction of viral replication after 3 days; assay type: functional, organism-based, Cowpox virus (Brighton Red); settings: 72 h
Vaccinia virus [16] = experiment: Antiviral activity against Vaccinia virus WR in HFF cells assessed as reduction of viral replication after 3 days; assay type: functional, organism-based; settings: Orthopoxvirus vaccinia, 72 h
[17] = Selectivity index, ratio of CC50 for HFF cells to EC50 for Vaccinia virus Copenhagen; assay type: toxicity, cell-based; settings: human, read-out: Ratio CC50/EC50
Vaccinia virus [18] = experiment: Toxicity in Vaccinia virus WR infected BALB/c mouse assessed as survival at 30 mg/kg, po treated for 5 days after 24 hrs of viral inoculation; assay type: functional, organism-based; parameters: dose 30 mg/kg; settings: Orthopoxvirus vaccinia
Vaccinia virus [19] = experiment: Antiviral activity against Vaccinia virus WR infected BALB/c mouse assessed as log reduction of viral titer per gram of kidney at 30 mg/kg, po treated for 5 days after 24 hrs of viral inoculation; assay type: functional, Orthopoxvirus vaccinia
Cowpox virus [20] = experiment: Antiviral activity against Cowpox virus Brighton infected BALB/c mouse assessed as mean death day at 3 mg/kg, po treated for 5 days after 48 hrs of viral inoculation; assay type: functional, Cowpox virus (Brighton Red)
Cowpox virus [21] = experiment: Antiviral activity against Cowpox virus Brighton infected BALB/c mouse assessed as mortality at 10 mg/kg, po treated for 5 days after 24 hrs of viral inoculation; assay type: functional, Cowpox virus (Brighton Red)
Vaccinia virus [22] = experiment: Antiviral activity against Vaccinia virus WR infected BALB/c mouse assessed as mean death day at 10 mg/kg, po treated for 5 days after 72 hrs of viral inoculation; assay type: functional, Orthopoxvirus vaccinia
Vaccinia virus [23] = experiment: Antiviral activity against Vaccinia virus WR infected BALB/c mouse assessed as mean death day at 30 mg/kg, po treated for 5 days after 48 hrs of viral inoculation; assay type: functional, Orthopoxvirus vaccinia
Vaccinia virus [24] = experiment: Antiviral activity against Vaccinia virus WR infected BALB/c mouse assessed as mean death day at 3 mg/kg, po treated for 5 days after 24 hrs of viral inoculation; assay type: functional, Orthopoxvirus vaccinia
Vaccinia virus [25] = experiment: Antiviral activity against Vaccinia virus WR infected BALB/c mouse assessed as mortality at 10 mg/kg, po treated for 5 days after 48 hrs of viral inoculation; assay type: functional, Orthopoxvirus vaccinia
Lung [26] = experiment: Drug level in Swiss Webster mouse lung at 10 mg/kg, po after 3 hrs; assay type: ADME, organism-based; parameters: dose 10 mg/kg, route oral; settings: in vivo
Kidney [27] = experiment: Drug level in Swiss Webster mouse kidney at 10 mg/kg, po after 3 hrs; assay type: ADME, organism-based; parameters: dose 10 mg/kg, route oral; settings: in vivo
Lung [28] = experiment: Drug level in Swiss Webster mouse lung at 10 mg/kg, ip after 1 hr; assay type: ADME, organism-based; parameters: dose 10 mg/kg, route intraperitoneal; settings: in vivo
Kidney [29] = experiment: Drug level in Swiss Webster mouse kidney at 10 mg/kg, ip after 1 hr; assay type: ADME, organism-based; parameters: dose 10 mg/kg, route intraperitoneal; settings: in vivo

## CCCCCCCCCCCCCCCCOCCCOP(=O)(O)CO[C@H](CO)Cn1cnc2c(N)ncnc21
Liver [1]
  Drug uptake: 130 nmol/g
Liver [2]
  Drug uptake: 21 nmol/g
Mus musculus [3]
  concentration: 30 nM
[4]
  bioavailability: 74%
Mus musculus [5]
  concentration: 80 nM
Mus musculus [6]
  AUC: 12.1 nmol·h/g
[7]
  Tmax: 1 h
Mus musculus [8]
  AUC: 16.4 nmol·h/g
[9]
  Tmax: 3 h
[10]
  Cmax: 2200 nM
[11]
  Cmax: 1100 nM
[12]
  half-life: 2.5 h
[13]
  half-life: 11.5 h
[14]
  selectivity ratio: 485
Cowpox virus [15]
  pEC50: 7.70
Vaccinia virus [16]
  pEC50: 6.52
[17]
  selectivity ratio: 970
Vaccinia virus [18]
  Activity: Not toxic
Vaccinia virus [19]
  log10PFU: 4 g
Cowpox virus [20]
  Activity: 12.7 days
Cowpox virus [21]
  Activity: 67%
Vaccinia virus [22]
  Activity: 9.1 days
Vaccinia virus [23]
  Activity: 11 days
Vaccinia virus [24]
  Activity: 7 days
Vaccinia virus [25]
  Activity: 13%
Lung [26]
  Drug uptake: 1.9 nmol/g
Kidney [27]
  Drug uptake: 5.1 nmol/g
Lung [28]
  Drug uptake: 2.8 nmol/g
Kidney [29]
  Drug uptake: 23 nmol/g

## CCCCCCCCCCCCCCCCCCOCCOP(=O)(O)CO[C@H](CO)Cn1cnc2c(N)ncnc21
[14]
  selectivity ratio: 75
Cowpox virus [15]
  pEC50: 7.70
Vaccinia virus [16]
  pEC50: 7.00
[17]
  selectivity ratio: 150
Vaccinia virus [18]
  Activity: Not toxic
Vaccinia virus [19]
  log10PFU: 4 g
Cowpox virus [20]
  Activity: 10.6 days
Cowpox virus [21]
  Activity: 7%
Vaccinia virus [22]
  Activity: 9 days
Vaccinia virus [23]
  Activity: 9.7 days
Vaccinia virus [24]
  Activity: 8.8 days
Vaccinia virus [25]
  Activity: 20%
